System: STHdh Q111 cells
Assay: Multiparameter high content imaging for the analysis of cell apoptosis (calcein-AM / propidium iodide / Hoechst)
Format: cell-based, mouse
Conditions: for apoptosis / percentage of dead cells (propidium iodide-positive cells): STHdh Q111 cells treated with FTY720-P vs untreated (vehicle), 24 hours, serum-free medium, P-value=7.98×10^−5, two-sided student t-test, two independent experiments, twenty replicates each
Description: FIG. 16B is a bar plot comparing percentages of dead cells in STHdh Q111 cells not treated with an analogue of S1P (FTY720-P) to STHdh Q111 cells treated with FTY720-P in accordance with some embodiments. […] In contrast, this approach inferred the underlying network of sphingolipid dysregulation and the role of S1P in diseased cells without any prior assumptions.
FIG. 17 is a series of images illustrating cell viability, morphology, and shape in accordance with some embodiments. Images 1702, 1704, and 1706 show STHdh Q7 cells, STHdh Q111 cells, and STHdh Q111 cells treated with FTY720-P, respectively, following treatment with calcein to detect viable cells and monitor changes in cell shape and morphology. Images 1708, 1710, and 1712 show STHdh Q7 cells, STHdh Q111 cells, and STHdh Q111 cells treated with FTY720-P, respectively, following treatment with propidium iodide, which stains late apoptotic cells with damaged membranes. As shown, hidden components inferred by using the described approach rescue diseased cells.
According to some embodiments, STHdhQ7/Q7 and STHdhQ111/Q111 striatal cells were trypsinized, harvested in pre-warmed growth medium and quantified using an automated cell counter (available from, e.g., Countess II, Life Technologies). Six thousand cells per well were seeded in sterile, black 96-well microplates with flat, clear bottom. After 24 hours, the complete medium was removed and replaced with phenol red- and serum-free medium containing either FTY720 phosphate (available from Sigma-Aldrich) or vehicle (e.g., DMSO, available from Sigma-Aldrich) and cells were incubated for 24 hours at 33° C. A multiple staining solution containing 1 μg/ml calcein-AM, 2 μg/ml propidium iodide and 1.5 μg/ml […] (all available from Life Technologies) was added to detect and quantify live, dead, and total cells, respectively. After 20 minutes in incubation, a Cellomics Arrayscan Platform (available from Thermo Scientific) was used for imaging acquisition. […] Cell loss was expressed as the percentage of propidium iodide-positive cells. […]

## FTY720 phosphate [FTY720-P]
  apoptosis / percentage of dead cells (propidium iodide-positive cells): significantly decreasing apoptosis
Listed as Phosphorylated FTY720
  apoptosis / percentage of dead cells (propidium iodide-positive cells): significantly decrease apoptosis
STHdh cell line model of Huntington's disease, summary statement
  effect of treating diseased cells (neuroprotection): neuroprotective effects

— patent publication US20170046476A1, “SYSTEMS, APPARATUS, AND METHODS FOR ANALYZING AND PREDICTING CELLULAR PATHWAYS” (priority 2015, published 2017)
